Measured values: patent publication US20250064773A1, “TARGETING ERO1 ALPHA WITH AURONE DERIVATIVES” (West Virginia University Board of Governors on behalf of …, priority 2021, published 2025)

How the values were obtained:
LSD-1 = LSD-1 (Homo sapiens, UniProt O60341); test: Cellular thermal shift assay (CETSA) in PC-9 cells, LSD-1; type: cell-based; details: 100 μM
Source text: To date activity of T151742 towards other flavoenzymes has not been identified at this time. We utilized the Cellular Thermal Shift Assay (CETSA) to determine target engagement of T151742 in vitro using the non-small cell lung cancer (NSCLC) cell line PC-9. The EGFR driven PC-9 cell line was chosen as new treatment strategies are needed in EGFR driven NSCLC as most patients relapse and become resistant to current targeted therapies with development of further mutations such as T790M, C797S as well as emergence of EGFR independent tumors^42, 43. […] First, we determined the aggregation temperature (Tagg) of ERO1α, ERO1β, and LSD-1, which are all FAD dependent enzymes and potential in vitro targets of T15742. […]
Upon addition of T151742, Tagg was quantified for ERO1α, ERO1β, and LSD-1. Quantification of the average of n=3 independent experiments based on western blot analysis for ERO1α, ERO1β, and LSD-1. […] Cellular viability was determined by MTT assay. n=3 independent experiments performed in quadruplicates. ****p<0.0001; by two-way ANOVA.
Cell Lines: PC-9 cell line used was obtained from Sigma Aldrich and grown in RPMI 1640 medium with 10% fetal bovine serum and 1% penicillin/streptomycin. […] Plate was then read on the BioTek Cytation 5 at 530/590 nm. […]

MAO-A = biological target: T1, MAO-A (Homo sapiens, UniProt P21397); details: cited from earlier work
T1 sequence (P21397 1-527): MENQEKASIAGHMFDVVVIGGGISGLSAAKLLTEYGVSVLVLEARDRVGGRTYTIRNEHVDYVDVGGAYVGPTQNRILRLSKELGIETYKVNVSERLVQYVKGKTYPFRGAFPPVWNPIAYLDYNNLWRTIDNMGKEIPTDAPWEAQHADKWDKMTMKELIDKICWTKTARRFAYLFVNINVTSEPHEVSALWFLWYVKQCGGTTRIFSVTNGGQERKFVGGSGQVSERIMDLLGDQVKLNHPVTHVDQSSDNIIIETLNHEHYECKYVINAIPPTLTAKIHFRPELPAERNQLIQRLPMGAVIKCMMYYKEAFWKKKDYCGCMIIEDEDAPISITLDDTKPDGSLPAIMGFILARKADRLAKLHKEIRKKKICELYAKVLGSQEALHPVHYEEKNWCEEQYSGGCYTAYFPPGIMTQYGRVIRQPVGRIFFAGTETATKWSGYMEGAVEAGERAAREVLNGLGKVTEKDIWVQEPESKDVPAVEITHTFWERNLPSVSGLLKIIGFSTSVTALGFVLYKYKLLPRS

SMILES: CN(C)c1ccc(/C=C2\Oc3cc(O)ccc3C2=O)cc1 [Compound T151742]
- change of Tagg for LSD-1 (LSD-1): did not change
- inhibition of / activity against MAO-A (MAO-A): showed activity
